Measured values as given in patent publication US20240043404A1 (AbbVie Inc., priority 2009, published 2024).
pEC50: −log10 of the molar value.

What follows are compounds tested on RS4;11 cells (assay: RS4;11 cell viability assay (CellTiter Glo)). Details: Homo sapiens, RS4-11, 48 h, 50,000 cells per well, 10% human serum, 48 hours; read-out: RS4; 11 EC50 Values.
Format: cell-based, human
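Also: acute lymphoblastic leukemia line RS4,11, EC50 derived from percentage of viable cells after treatment relative to untreated controls, cell killing taken as a measure of Bcl-2 inhibition.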
Method: The acute lymphoblastic leukemia (ALL) cell line RS4;11 was used as the primary human cell line to assess the cellular activity of Bcl-2 selective agents in vitro and their efficacy in vivo.
Cell cytotoxicity EC50 values were assessed using CellTiter Glo (Promega) according to the manufacturer's recommendations. The EC50 values were determined as a percentage of viable cells following treatment compared to the untreated control cells.

SMILES | pEC50
COCC(=O)N1CCC(COc2ccc(S(=O)(=O)NC(=O)c3ccc(N4CCN(CC5=C(c6ccc(Cl)cc6)CC(C)(C)CC5)CC4)cc3Oc3cnc4[nH]ccc4c3)cc2Cl)CC1 [Example 294, N-[(3-chloro-4-{[1-(methoxyacetyl)piperidin-4-yl]methoxy}phenyl)sulfonyl]-4-(4-{[2-(4-chlorophenyl)-4,4-dimethylcyclohex-1-en-1-yl]methyl}piperazin-1-yl)-2-(1H-pyrrolo[2,3-b]pyridin-5-yloxy)benzamide] | 6.90
CN(C)CC(=O)N1CCC(COc2ccc(S(=O)(=O)NC(=O)c3ccc(N4CCN(CC5=C(c6ccc(Cl)cc6)CC(C)(C)CC5)CC4)cc3Oc3cnc4[nH]ccc4c3)cc2Cl)CC1 [Example 295, N-[(3-chloro-4-{[1-(N,N-dimethylglycyl)piperidin-4-yl]methoxy}phenyl)sulfonyl]-4-(4-{[2-(4-chlorophenyl)-4,4-dimethylcyclohex-1-en-1-yl]methyl}piperazin-1-yl)-2-(1H-pyrrolo[2,3-b]pyridin-5-yloxy)benzamide] | 7.83
CC1(C)CCC(CC2CCN(c3ccc(C(=O)NS(=O)(=O)c4ccc(NCC5CCOCC5)c([N+](=O)[O-])c4)c(Oc4cnc5[nH]ccc5c4)c3)CC2)C(c2ccc(Cl)cc2)C1 (stereo not shown) [Example 296, 4-(4-{[2-(4-chlorophenyl)-4,4-dimethylcyclohexyl]methyl}piperidin-1-yl)-N-({3-nitro-4-[(tetrahydro-2H-pyran-4-ylmethyl)amino]phenyl}sulfonyl)-2-(1H-pyrrolo[2,3-b]pyridin-5-yloxy)benzamide] | 6.11
CC1(C)CCC(CN2CCN(c3ccc(C(=O)NS(=O)(=O)c4ccc(OCC5(F)CCOCC5)c(C#N)c4)c(Oc4cnc5[nH]ccc5c4)c3)CC2)=C(c2ccc(Cl)cc2)C1 [Example 299, 4-(4-{[2-(4-chlorophenyl)-4,4-dimethylcyclohex-1-en-1-yl]methyl}piperazin-1-yl)-N-({3-cyano-4-[(4-fluorotetrahydro-2H-pyran-4-yl)methoxy]phenyl}sulfonyl)-2-(1H-pyrrolo[2,3-b]pyridin-5-yloxy)benzamide] | 7.17
CC1(C)CCC(CC2CCN(c3ccc(C(=O)NS(=O)(=O)c4cnc(OCC5(O)CCC(F)(F)CC5)c(Cl)c4)c(Oc4cnc5[nH]ccc5c4)c3)CC2)=C(c2ccc(Cl)cc2)C1 [Example 302, N-({5-chloro-6-[(4,4-difluoro-1-hydroxycyclohexyl)methoxy]pyridin-3-yl}sulfonyl)-4-(4-{[2-(4-chlorophenyl)-4,4-dimethylcyclohex-1-en-1-yl]methyl}piperidin-1-yl)-2-(1H-pyrrolo[2,3-b]pyridin-5-yloxy)benzamide] | 6.42
CC1(C)CCC(CN2CCN(c3ccc(C(=O)NS(=O)(=O)c4ccc(OC[C@H]5CC[C@H](N6CCOCC6)CC5)c(Cl)c4)c(Oc4cnc5[nH]ccc5c4)c3)CC2)=C(c2ccc(Cl)cc2)C1 [Example 303, N-[(3-chloro-4-{[trans-4-(morpholin-4-yl)cyclohexyl]methoxy}phenyl)sulfonyl]-4-(4-{[2-(4-chlorophenyl)-4,4-dimethylcyclohex-1-en-1-yl]methyl}piperazin-1-yl)-2-(1H-pyrrolo[2,3-b]pyridin-5-yloxy)benzamide] | 7.32
CC1(C)CCC(CN2CCN(c3ccc(C(=O)NS(=O)(=O)c4ccc(NCCCN(Cc5cncs5)C5CC5)c([N+](=O)[O-])c4)c(Oc4cnc5[nH]ccc5c4)c3)CC2)=C(c2ccc(Cl)cc2)C1 [Example 304, 4-(4-{[2-(4-chlorophenyl)-4,4-dimethylcyclohex-1-en-1-yl]methyl}piperazin-1-yl)-N-{[4-({3-[cyclopropyl(1,3-thiazol-5-ylmethyl)amino]propyl}amino)-3-nitrophenyl]sulfonyl}-2-(1H-pyrrolo[2,3-b]pyridin-5-yloxy)benzamide] | 6.53
CC1(C)CCC(CN2CCN(c3ccc(C(=O)NS(=O)(=O)c4ccc(NCC5CCOCC5)c(Cl)c4)c(Oc4cnc5[nH]ccc5c4)c3)CC2)=C(c2ccc(Cl)cc2)C1 [Example 306, 4-(4-{[2-(4-chlorophenyl)-4,4-dimethylcyclohex-1-en-1-yl]methyl}piperazin-1-yl)-N-({3-chloro-4-[(tetrahydro-2H-pyran-4-ylmethyl)amino]phenyl}sulfonyl)-2-(1H-pyrrolo[2,3-b]pyridin-5-yloxy)benzamide] | 6.26
CC1(C)CCC(CN2CCN(c3ccc(C(=O)NS(=O)(=O)c4ccc(NCCCN(CC(F)(F)F)C5CC5)c([N+](=O)[O-])c4)c(Oc4cnc5[nH]ccc5c4)c3)CC2)=C(c2ccc(Cl)cc2)C1 [Example 308, 4-(4-{[2-(4-chlorophenyl)-4,4-dimethylcyclohex-1-en-1-yl]methyl}piperazin-1-yl)-N-{[4-({3-[cyclopropyl(2,2,2-trifluoroethyl)amino]propyl}amino)-3-nitrophenyl]sulfonyl}-2-(1H-pyrrolo[2,3-b]pyridin-5-yloxy)benzamide] | 6.59
CC1(C)CCC(CN2CCN(c3ccc(C(=O)NS(=O)(=O)c4ccc(OCC5CCN(C6COC6)CC5)c(Cl)c4)c(Oc4cnc5[nH]ccc5c4)c3)CC2)=C(c2ccc(Cl)cc2)C1 [Example 309, N-[(3-chloro-4-{[1-(oxetan-3-yl)piperidin-4-yl]methoxy}phenyl)sulfonyl]-4-(4-{[2-(4-chlorophenyl)-4,4-dimethylcyclohex-1-en-1-yl]methyl}piperazin-1-yl)-2-(1H-pyrrolo[2,3-b]pyridin-5-yloxy)benzamide] | 7.28
CC1(C)CCC(CN2CCN(c3ccc(C(=O)NS(=O)(=O)c4cc(F)c(OCC5(F)CCOCC5)c(F)c4)c(Oc4cnc5[nH]ccc5c4)c3)CC2)=C(c2ccc(Cl)cc2)C1 [Example 310, 4-(4-{[2-(4-chlorophenyl)-4,4-dimethylcyclohex-1-en-1-yl]methyl}piperazin-1-yl)-N-({3,5-difluoro-4-[(4-fluorotetrahydro-2H-pyran-4-yl)methoxy]phenyl}sulfonyl)-2-(1H-pyrrolo[2,3-b]pyridin-5-yloxy)benzamide] | < 6.00
CC1(C)CCC(CN2CCN(c3ccc(C(=O)NS(=O)(=O)c4ccc(NCCCN(C5CC5)C5COC5)c([N+](=O)[O-])c4)c(Oc4cnc5[nH]ccc5c4)c3)CC2)=C(c2ccc(Cl)cc2)C1 [Example 311, 4-(4-{[2-(4-chlorophenyl)-4,4-dimethylcyclohex-1-en-1-yl]methyl}piperazin-1-yl)-N-{[4-({3-[cyclopropyl(oxetan-3-yl)amino]propyl}amino)-3-nitrophenyl]sulfonyl}-2-(1H-pyrrolo[2,3-b]pyridin-5-yloxy)benzamide] | 7.45

The next lines start with the values.

pEC50 | SMILES
6.54 | CC1(C)CCC(CN2CCN(c3ccc(C(=O)NS(=O)(=O)c4cnc(OCC5CCOCC5)c(F)c4)c(Oc4cnc5[nH]ccc5c4)c3)CC2)=C(c2ccc(Cl)cc2)C1 [Example 293, 4-(4-{[2-(4-chlorophenyl)-4,4-dimethylcyclohex-1-en-1-yl]methyl}piperazin-1-yl)-N-{[5-fluoro-6-(tetrahydro-2H-pyran-4-ylmethoxy)pyridin-3-yl]sulfonyl}-2-(1H-pyrrolo[2,3-b]pyridin-5-yloxy)benzamide]
6.23 | CC1(C)CCC(CN2CCN(c3ccc(C(=O)NS(=O)(=O)c4cnc(OCC5CCOCC5)c(C(F)(F)F)c4)c(Oc4cnc5[nH]ccc5c4)c3)CC2)=C(c2ccc(Cl)cc2)C1 [Example 297, 4-(4-{[2-(4-chlorophenyl)-4,4-dimethylcyclohex-1-en-1-yl]methyl}piperazin-1-yl)-2-(1H-pyrrolo[2,3-b]pyridin-5-yloxy)-N-{[6-(tetrahydro-2H-pyran-4-ylmethoxy)-5-(trifluoromethyl)pyridin-3-yl]sulfonyl}benzamide]
7.15 | CC1(C)CCC(CN2CCN(c3ccc(C(=O)NS(=O)(=O)c4cnc(OC[C@H]5CC[C@H](O)CC5)c(Cl)c4)c(Oc4cnc5[nH]ccc5c4)c3)CC2)=C(c2ccc(Cl)cc2)C1 [Example 298, N-({5-chloro-6-[(trans-4-hydroxycyclohexyl)methoxy]pyridin-3-yl}sulfonyl)-4-(4-{[2-(4-chlorophenyl)-4,4-dimethylcyclohex-1-en-1-yl]methyl}piperazin-1-yl)-2-(1H-pyrrolo[2,3-b]pyridin-5-yloxy)benzamide]
6.12 | CO[C@H]1CC[C@H](COc2ncc(S(=O)(=O)NC(=O)c3ccc(N4CCN(CC5=C(c6ccc(Cl)cc6)CC(C)(C)CC5)CC4)cc3Oc3cnc4[nH]ccc4c3)cc2C(F)(F)F)CC1 [Example 300, 4-(4-{[2-(4-chlorophenyl)-4,4-dimethylcyclohex-1-en-1-yl]methyl}piperazin-1-yl)-N-({6-[(trans-4-methoxycyclohexyl)methoxy]-5-(trifluoromethyl)pyridin-3-yl}sulfonyl)-2-(1H-pyrrolo[2,3-b]pyridin-5-yloxy)benzamide]
< 6.00 | CO[C@H]1CC[C@@H](COc2ncc(S(=O)(=O)NC(=O)c3ccc(N4CCN(CC5=C(c6ccc(Cl)cc6)CC(C)(C)CC5)CC4)cc3Oc3cnc4[nH]ccc4c3)cc2C(F)(F)F)CC1 [Example 301, 4-(4-{[2-(4-chlorophenyl)-4,4-dimethylcyclohex-1-en-1-yl]methyl}piperazin-1-yl)-N-({6-[(cis-4-methoxycyclohexyl)methoxy]-5-(trifluoromethyl)pyridin-3-yl}sulfonyl)-2-(1H-pyrrolo[2,3-b]pyridin-5-yloxy)benzamide]
7.49 | CC1(C)CCC(CN2CCN(c3ccc(C(=O)NS(=O)(=O)c4ccc(OC[C@H]5CC[C@H](O)CC5)c(Cl)c4)c(Oc4cnc5[nH]ccc5c4)c3)CC2)=C(c2ccc(Cl)cc2)C1 [Example 305, N-({3-chloro-4-[(trans-4-hydroxycyclohexyl)methoxy]phenyl}sulfonyl)-4-(4-{[2-(4-chlorophenyl)-4,4-dimethylcyclohex-1-en-1-yl]methyl}piperazin-1-yl)-2-(1H-pyrrolo[2,3-b]pyridin-5-yloxy)benzamide]
6.89 | CC1(C)CCC(CN2CCN(c3ccc(C(=O)NS(=O)(=O)c4ccc(OCC5(F)CCOCC5)c(C(F)(F)F)c4)c(Oc4cnc5[nH]ccc5c4)c3)CC2)=C(c2ccc(Cl)cc2)C1 [Example 307, 4-(4-{[2-(4-chlorophenyl)-4,4-dimethylcyclohex-1-en-1-yl]methyl}piperazin-1-yl)-N-({4-[(4-fluorotetrahydro-2H-pyran-4-yl)methoxy]-3-(trifluoromethyl)phenyl}sulfonyl)-2-(1H-pyrrolo[2,3-b]pyridin-5-yloxy)benzamide]
